Data published in patent publication US7473790B2 (Pfizer Inc., priority 2003, dated 2009).

These molecules were tested against T1, HCV polymerase (Hepatitis C virus genotype 1b, UniProt P26663) (assay: HCV polymerase primer/template-directed transcription assay (32P-GTP incorporation, filter binding)). Settings: recombinant HCV polymerase; 30 minutes at 30° C.; concentration giving 50% inhibition of polymerase-directed transcription; read-out: IC50.
T1 construct: 2.5 pmoles (0.15 μg) HCV polymerase protein in a final volume of 75 μL
Format: biochemical
Outline: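 Recombinant genotype 1b polymerase (30 nM) extended biotin-dG12 primer on poly(rC)300 template with 1 μM GTP plus α-32P-GTP, pH 7.2, 10 mM MgCl2, 30 min at 30° C, 1% DMSO final. Products captured on DE filters and counted. IC50 fitted from triplicate cpm, with a tight-binding correction applied below 200 nM.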

T1 sequence (P26663 2420-3010): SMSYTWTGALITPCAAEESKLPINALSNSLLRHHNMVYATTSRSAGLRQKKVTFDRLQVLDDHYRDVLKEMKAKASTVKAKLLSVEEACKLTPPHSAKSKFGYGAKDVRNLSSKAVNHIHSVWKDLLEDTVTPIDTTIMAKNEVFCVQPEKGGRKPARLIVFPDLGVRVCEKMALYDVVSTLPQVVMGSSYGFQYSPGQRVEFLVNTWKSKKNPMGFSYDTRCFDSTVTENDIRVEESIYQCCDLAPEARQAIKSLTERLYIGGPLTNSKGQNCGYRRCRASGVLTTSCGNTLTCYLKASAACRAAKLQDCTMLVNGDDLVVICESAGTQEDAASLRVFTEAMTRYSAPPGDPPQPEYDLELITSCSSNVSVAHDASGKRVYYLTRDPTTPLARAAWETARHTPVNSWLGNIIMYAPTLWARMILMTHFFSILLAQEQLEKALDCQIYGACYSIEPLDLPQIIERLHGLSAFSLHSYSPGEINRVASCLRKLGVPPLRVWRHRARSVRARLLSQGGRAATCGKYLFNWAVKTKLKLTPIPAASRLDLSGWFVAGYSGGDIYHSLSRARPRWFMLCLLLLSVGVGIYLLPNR

| Structure (SMILES) | IC50 [nM] |
| --- | --- |
| COc1cc(OC)c(CCC2(C3CCCC3)CC(O)=C(Sc3nc4nc[nH]c(=O)c4[nH]3)C(=O)O2)cc1Cl (stereo not drawn) [C(70), 8-({6-[2-(5-chloro-2,4-dimethoxyphenyl)ethyl]-6-cyclopentyl-4-hydroxy-2-oxo-5,6-dihydro-2H-pyran-3-yl}thio)-1,7-dihydro-6H-purin-6-one] | 7.4 |
| COc1cc(OC)c(CCC2(C3CCCC3)CC(O)=C(Sc3n[nH]c(-c4ccccc4)n3)C(=O)O2)cc1Cl (stereo not drawn) [C(71), 6-[2-(5-Chloro-2,4-dimethoxyphenyl)ethyl]-6-cyclopentyl-4-hydroxy-3-[(5-phenyl-1H-1,2,4-triazol-3-yl)thio]-5,6-dihydro-2H-pyran-2-one] | 58 |
| COc1cc(OC)c(CCC2(C3CCCC3)CC(O)=C(Sc3nnnn3C)C(=O)O2)cc1Cl (stereo not drawn) [C(72), 6-[2-(5-Chloro-2,4-dimethoxyphenyl)ethyl]-6-cyclopentyl-4-hydroxy-3-[(1-methyl-1H-tetrazol-5-yl)thio]-5,6-dihydro-2H-pyran-2-one] | 78 |
| COc1cc(OC)c(CCC2(C3CCCC3)CC(O)=C(Sc3nc4cc(Cl)ccc4n3C(C)C)C(=O)O2)cc1Cl (stereo not drawn) [C(73), 6-[2-(5-Chloro-2,4-dimethoxyphenyl)ethyl]-3-[(5-chloro-1-isopropyl-1H-benzimidazol-2-yl)thio]-6-cyclopentyl-4-hydroxy-5,6-dihydro-2H-pyran-2-one] | 35 |
| COc1cc(OC)c(CCC2(C3CCCC3)CC(O)=C(Sc3nc(O)cc(C(F)(F)F)n3)C(=O)O2)cc1Cl (stereo not drawn) [C(74), 6-[2-(5-chloro-2,4-dimethoxyphenyl)ethyl]-6-cyclopentyl-4-hydroxy-3-{[4-hydroxy-6-(trifluoromethyl)pyrimidin-2-yl]thio}-5,6-dihydro-2H-pyran-2-one] | 99 |
| COc1cc(OC)c(CCC2(C3CCCC3)CC(O)=C(Sc3nnc(-c4cccnc4)[nH]3)C(=O)O2)cc1Cl (stereo not drawn) [C(75), 6-[2-(5-chloro-2,4-dimethoxyphenyl)ethyl]-6-cyclopentyl-4-hydroxy-3-[(5-pyridin-3-yl-4H-1,2,4-triazol-3-yl)thio]-5,6-dihydro-2H-pyran-2-one] | 44 |
| COc1cc(OC)c(CCC2(C3CCCC3)CC(O)=C(Sc3nc4cc(N)ccc4n3C)C(=O)O2)cc1Cl (stereo not drawn) [C(76), 3-[(5-amino-1-methyl-1H-benzimidazol-2-yl)thio]-6-[2-(5-chloro-2,4-dimethoxyphenyl)ethyl]-6-cyclopentyl-4-hydroxy-5,6-dihydro-2H-pyran-2-one] | 53 |
| COc1cc(OC)c(CCC2(C3CCCC3)CC(O)=C(Sc3ncc(-c4cccnc4)[nH]3)C(=O)O2)cc1Cl (stereo not drawn) [C(77), 6-[2-(5-chloro-2,4-dimethoxyphenyl)ethyl]-6-6cyclopentyl-4-hydroxy-3-[(5-pyridin-3-yl-1H-imidazol-2-yl)thio]-5,6-2H-pyran-2-one] | 62 |
| COc1cc(OC)c(CCC2(C3CCCC3)CC(O)=C(Sc3nccnc3C)C(=O)O2)cc1Cl (stereo not drawn) [C(78), 6-[2-(5-chloro-2,4-dimethoxyphenyl)ethyl]-6-cyclopentyl-4-hydroxy-3[(3-methylpyrazin-2-yl)thio]-5,6-dihydro-2H-pyran-2-one] | 47 |
| COc1cccc(-c2nnc(SC3=C(O)CC(CCc4cc(Cl)c(OC)cc4OC)(C4CCCC4)OC3=O)n2C)c1 (stereo not drawn) [C(79), 6-[2-(5-chloro-2,4-dimethoxyphenyl)ethyl]-6-cyclopentyl-4-hydroxy-3-{[5-(3-methoxyphenyl)-4-methyl-4H-1,2,4-triazol-3-yl]thio}-5,6-dihydro-2H-pyran-2-one] | 63 |
| COc1cc(OC)c(CCC2(C3CCCC3)CC(O)=C(Sc3nnc(O)n3C(C)C)C(=O)O2)cc1Cl (stereo not drawn) [C(80), 6-[2-(5-chloro-2,4-dimethoxyphenyl)ethyl]-6-cyclopentyl-4-hydroxy-3-[(5-hydroxy-4-isopropyl-4H-1,2,4-triazol-3-yl)thio]-5,6-dihydro-2H-pyran-2-one] | 31 |
| COc1cc(OC)c(CCC2(C3CCCC3)CC(O)=C(Sc3nnc(-c4ccc(O)cc4)[nH]3)C(=O)O2)cc1Cl (stereo not drawn) [C(81), 6-[2-(5-chlor-2,4-dimethoxyphenyl)ethyl]-6-cyclopentyl-4-hydroxy-3-{[5-(4-hydroxyphenyl)-4H-1,2,4-triazol-3-yl]thio}-5,6-dihydro-2H-pyran-2-one] | 14 |
| COc1cc(OC)c(CCC2(C3CCCC3)CC(O)=C(Sc3nc4nc(C)ccn4n3)C(=O)O2)cc1Cl (stereo not drawn) [C(82), 6-[2-(5-chloro-2,4-dimethoxyphenyl)ethyl]-6-cyclopentyl-4-hydroxy-3-[(5-methyl[1,2,4]triazolo[1,5-a]pyrimidin-2-yl)thio]-5,6-dihydro-2H-pyran-2-one] | 27 |
| COc1cc(OC)c(CCC2(C3CCCC3)CC(O)=C(Sc3nnc(CN(C)C)n3C)C(=O)O2)cc1Cl (stereo not drawn) [C(83)] | 40 |
| COc1cc(OC)c(CCC2(C3CCCC3)CC(O)=C(Sc3nc4ncccn4n3)C(=O)O2)cc1Cl (stereo not drawn) [C(84)] | 33 |
| COc1cc(OC)c(CCC2(C3CCCC3)CC(O)=C(Sc3nnc(-c4cccnc4)n3C)C(=O)O2)cc1Cl (stereo not drawn) [C(85), 6-[-(5-chloro-2,4-dimethoxyphenyl)ethyl]-6-cyclopentyl-4-hydroxy-3-[(4-methyl-5-pyridin-3-yl-4H-1,2,4-triazol-3-yl)thio]-5,6-dihydro-2H-pyran-2-one] | 35 |
| COc1cc(OC)c(CCC2(C3CCCC3)CC(O)=C(Sc3nnc(C)n3CCN3CCOCC3)C(=O)O2)cc1Cl (stereo not drawn) [C(86), 6-[2-(5-chloro-2,4-dimethoxyphenyl)ethyl]-6-cyclopentyl-4-hydroxy-3-{[5-methyl-4-(2-morpholin-4-ylethyl)-4H-1,2,4-triazol-3-yl]thio}-5,6-dihydro-2H-pyran-2-one] | 48 |
| COc1cc(OC)c(CCC2(C3CCCC3)CC(O)=C(Sc3nc4ncc(C)cn4n3)C(=O)O2)cc1Cl (stereo not drawn) [C(87), 6-[2-(5-chloro-2,4-dimethoxyphenyl)ethyl]-6-cyclopentyl-4-hydroxy-3-[(6-methyl[1,2,4]triazolo[1,5-a]pyrimidin-2-yl)thio]-5,6-dihydro-2H-pyran-2-one] | 28 |
| COc1cc(OC)c(CCC2(C3CCCC3)CC(O)=C(Sc3nnc(C)n3C)C(=O)O2)cc1Cl (stereo not drawn) [C(88), 6-[2-(5-chloro-2,4-dimethoxyphenyl)ethyl]-6-cyclopentyl-3-[(4,5-dimethyl-4H-1,2,4-triazol-3-yl)thio]-4-hydroxy-5,6-dihydro-2H-pyran-2-one] | 22 |
| COC(=O)c1nnc(SC2=C(O)CC(CCc3cc(Cl)c(OC)cc3OC)(C3CCCC3)OC2=O)n1C (stereo not drawn) [C(89), methyl 5-({6-[2-(5-chloro-2,4-dimethoxyphenyl)ethyl]-6-cyclopentyl-4-hydroxy-2-oxo-5,6-dihydro-2H-pyran-3-yl}thio)-4-methyl-4H-1,2,4-triazole-3-carboxylate] | 20 |
| COc1cc(OC)c(CCC2(C3CCCC3)CC(O)=C(Sc3nnc(CCN4CCOCC4)n3C)C(=O)O2)cc1Cl (stereo not drawn) [C(90), 6-[2-(5-chloro-2,4-dimethoxyphenyl)ethyl]-6-cyclopentyl-4-hydroxy-3-{[4-methyl-5-(2-morpholin-4-ylethyl)-4H-1,2,4-triazol-3-yl]thio}-5,6-dihydro-2H-pyran-2-one] | 40 |
| COc1ccc(CCC2(C3CCCC3)CC(O)=C(Sc3nc4ncnc(O)c4[nH]3)C(=O)O2)cc1Cl (stereo not drawn) [C(91), 3 6-[2-(3-chlor-4-methoxyphenyl)ethyl]-6-cyclopentyl-4-hydroxy-3-[(6-hydroxy-7H-purin-8-yl)thio]-5,6-dihydro-2H-pyran-2-one] | 40 |
| COc1ccc(CCC2(C3CCCC3)CC(O)=C(Sc3nnc(-c4cccnc4)[nH]3)C(=O)O2)cc1Cl (stereo not drawn) [C(92), 6-[2-(3-chloro-4-methoxyphenyl)ethyl]-6-cyclopentyl-4-hydroxy-3-[(5-pyridin-3-yl-4H-1,2,4-triazol-3-yl)thio]-5,6-dihydro-2H-pyran-2-one] | 82 |
| CCOC(=O)c1cnc2nc(SC3=C(O)CC(CCc4cc(Cl)c(OC)cc4OC)(C4CCCC4)OC3=O)nn2c1 (stereo not drawn) [C(93), ethyl 2-({6-[2-(5-chloro-2,4-dimethoxyphenyl)ethyl]-6-cyclopentyl-4-hydroxy-2-oxo-5,6-dihydro-2H-pyran-3-yl}thio)[1,2,4]triazolo[1,5-a]pyrimidine-6-carboxylate] | 14 |
| CCOC(=O)c1cnc2nc(SC3=C(O)CC(CCc4ccc(OC)c(Cl)c4)(C4CCCC4)OC3=O)nn2c1 (stereo not drawn) [C(94), ethyl 2-({6-[2-(3-chloro-4-methoxyphenyl)ethyl]-6-cyclopentyl-4-hydroxy-2-oxo-5,6-dihydro-2H-pyran-3-yl}thio)[1,2,4]triazolo[1,5-a]pyrimidine-6-carboxylate] | 87 |
| COc1ccc(CCC2(C3CCCC3)CC(O)=C(Sc3nc4nccc(C)n4n3)C(=O)O2)cc1Cl (stereo not drawn) [C(95), 6-[2-(3-chloro-4-methoxyphenyl)ethyl]-6-cyclopentyl-4-hydroxy-3-[(7-methyl[1,2,4]triazolo[1,5-a]pyrimidin-2-yl)thio]-5,6-dihydro-2H-pyran-2-one] | 74 |
| COc1ccc(CCC2(C3CCCC3)CC(O)=C(Sc3nnc(-c4cccnc4)n3C)C(=O)O2)cc1Cl (stereo not drawn) [C(96)] | 75 |
| COc1ccc(CCC2(C3CCCC3)CC(O)=C(Sc3nnc(CN(C)C)n3C)C(=O)O2)cc1Cl (stereo not drawn) [C(97), 6-[2-(3-chloro-4-methoxyphenyl)ethyl]-6-cyclopentyl-3-({5-[(dimethylamino)methyl]-4-methyl-4H-1,2,4-triazol-3-yl}thio)-4-hydroxy-5,6-dihydro-2H-pyran-2-one] | 120 |
| COc1ccc(CCC2(C3CCCC3)CC(O)=C(Sc3nc4ncc(C)cn4n3)C(=O)O2)cc1Cl (stereo not drawn) [C(98), 6-[2-(3-chloro-4-methoxyphenyl)ethyl]-6-cyclopentyl-4-hydroxy-3-[(6-methyl[1,2,4]triazolo[1,5-a]pyrimidin-2-yl)thio]-5,6-dihydro-2H-pyran-2-one] | 68 |
| COc1ccc(CCC2(C3CCCC3)CC(O)=C(Sc3nnc(C)n3C)C(=O)O2)cc1Cl (stereo not drawn) [C(99), 6-[2-(3-chloro-4-methoxyphenyl)ethyl]-6-cyclopentyl-3-[(4,5-dimethyl-4H-1,2,4-triazol-3-yl)thio]-4-hydroxy-5,6-dihydro-2H-pyran-2-one] | 79 |
